Source: publication PMC6508865, “Dynamics of thymol dietary supplementation in quail (Coturnix japonica): Linking bioavailability, effects on egg yolk total fatty acids and performance traits” (PLoS ONE, 2019)
Where two headings read alike, the source gives them in different places.

Assays:
[1] = Thymol quantification in quail droppings (HS-SPME/GC-MS) during chronic dietary supplementation; type: in vivo, Coturnix japonica; conditions: for concentration at 2 days / concentration at 9 days / concentration at 16 days / concentration at 26 days: female, Japanese quail (Coturnix japonica), droppings, oral, read-out: THY concentration in droppings
Source text: (§1) A total of 50 eighty-five days-old female quail of homogeneous body weights (251 ± 1 g; Mean ± SE) and in their egg-laying peak were selected from an initial group of 96 female individuals. All birds continued receiving a basal diet between 85 and 100 days of age and all variables (see below for details) were registered along this period (Pre-supplementation period, Fig 1). From 100 to 128 days of age (S period, Fig 1), females were randomly assigned to either a chronic dietary supplementation with one of 3 THY doses (THY2, THY4 and THY6; 10 females each) or to one of 2 control groups (basal diet, BASAL, and basal diet with vehicle solution, VEHICLE; 10 females each). Once finished the S period, half of the quail were slaughtered for histological analysis (n = 25; Slaughter 1, Fig 1) and the other half were subjected to a pS period of 21 days, during which all females received the BASAL diet (pS, Fig 1). After this period, the remaining 25 animals were also slaughtered for histological analysis (Slaughter 2, Fig 1). In this way, we assessed whether THY induced changes in variables indicative of tissue damage and if so, whether the potential damages could reverse after 3 weeks of supplement withdrawal.
To assess changes in egg yolk total FA composition, egg physical characteristics, laying rate, body weight, feed intake and general welfare, during the S and pS periods, five sampling points were defined (Sample points, Fig 1): one initial sample point (at 0 days of S); three sample points during the S period (at 7, 14 and 28 days of S); and one sample point at the end of the pS period (21 days of pS). It should be noted that for determinations of THY concentration, eggs and quail droppings were collected offset from the other variables measured by 2 days, thus were collected on days 2, 9, 16, and 26 days of S, and 17 days of pS, respectively.
Thymol was commercially obtained from Sigma-Aldrich (SAFC®, ⩾99%; FCC, Saint Louis, MO, USA). Supplemented quail were provided 2, 4 or 6.25 g of THY per kg of feed. For this end, THY was prepared in a 2.4, 4.8 and 7.5% w/v ethanolic solution and uniformly sprayed on fresh feed. The feed was prepared and administrated daily, to minimize THY volatilization from feed before its consumption by females. The doses were selected considering two factors. The first, the concentration range for which the transfer of THY to the chicken and/or quail egg has been established. Second, the concentrations of THY supplementation that have shown biological effects. […] In this context, THY4 is and intermediate dose between the last two. Nutrient and FA compositions of the diets supplied were identical between each other and are reported in S1, S2 and S3 Tables, and are in accordance with the National Research Council recommendation.
Egg yolks and droppings of each female were obtained at each sample point (Sample points, Fig 1) and THY concentration was immediately measured by head space-solid phase microextraction followed by gas chromatography-mass spectrometry (HS-SPME/GC-MS) according to Fernandez et al.. SPME was performed with a manual holder with 100 um polydimethylsiloxane (PDMS) fiber. An aliquot of egg yolk (3 g), droppings (5 g) or feed (5 g) was put in a sealed 20 mL glass vial, spiked at the corresponding level with the standard m-cresol (Sigma-Aldrich; ≥ 99% (GC); Saint Louis, MO, USA) stock solution, and vortexed for 5 min. The vials were placed in a water bath and the PDMS fiber was exposed to the headspace for 30 min at 60°C and 5 min at 40°C for egg yolk and droppings or feed, respectively. The fiber was then inserted directly into the GC injector for desorption at 250°C for 10 min in splitless mode. Chromatography analysis was carried out in a Perkin Elmer Clarus 600 equipped with a PSSI injector and a quadrupole MS detector (Perkin Elmer, USA). Turbo Mass 5.4.2 software was used to control and acquire data from GC–MS. […]

[2] = test system: female Japanese quail (Coturnix japonica); test: Liver histological analysis (histopathological index); type: in vivo
Source text: as §1
At each slaughter point birds were euthanized by decapitation and livers were removed and stored in buffered formalin at 10%, processed routinely and stained with hematoxylin and eosin (H&E) and periodic acid-Schiff (PAS). Each slide was examined blinded, with a light microscope (Olympus X-785) and photographed with a digital camera (Moticam Camera 2300, 3 Megapixels). To evaluate histological alterations of liver, tissue was divided into 8 random equal areas to ensure there was no overlapping of the studied areas. For each area, the extension and number of each alteration were recorded with a microscope at 40X magnitude. Histopathological index of liver (HIliv) were estimated using a semi-quantitative protocol following, modified by our colleagues. Briefly, alterations were classified into four major reaction patterns each one of those including alterations that concern to different functional units of the liver or to the whole organ: RP1, circulatory disturbances (dilatation of sinusoids, vascular congestion, hemorrhage); RP2, regressive changes (steatosis or fatty degeneration, hydropic degeneration, nuclear alteration, fibrosis, necrosis); RP3, progressive changes (oval cells, cell hypertrophy and hyperplasia); and RP4, liver inflammation (leukocyte infiltration). Then, for each RP, an index was calculated based on two factors: the pathological importance of the lesions (importance factor, W) (range 1–3) and the extension of pathological change (score value, a) from 0 (unchanged) to 8 (extreme occurrence). Finally, a total liver histopathological index (HIliv) was calculated by adding the single RP liver indices of each individual quail. A greater value of (HIliv) reflects the most severely affected individual.

[3] = parameters: method as in ref 14 = [14]; 14 Botsoglou N , Yannakopoulos AL , Fletouris DJ , Tserveni-Goussi AS , Fortomaris PD . Effect of dietary thyme on oxidative stability of egg yolk . J Agric Food Chem . 1997; 45 ( 10 ): 3711 – 6 .; conditions: cited from earlier work
[4] = THY2, 2 g of thymol/kg of feed, pS, 17 days of supplement withdrawal
[5] = THY4, 4 g of thymol/kg of feed, pS, 17 days of supplement withdrawal
[6] = THY6, 6.25 g of thymol/kg of feed, pS, 17 days of supplement withdrawal
[7] = overall mean over control and 2, 4, 6.25 g thymol/kg feed diets and two slaughter batches
[8] = overall mean over control and 2, 4, 6.25 g thymol/kg feed diets and two slaughter batches, no effect of diet

Cc1ccc(C(C)C)c(O)c1 [THY, 2 isopropyl-5-methylphenol]
Percentage of THY transferred to droppings in relation to the amount ingested ([1]; THY2, 2 g of thymol/kg of feed, 2 days of S): 0.53%
Percentage of THY transferred to droppings in relation to the amount ingested ([1]; THY2, 2 g of thymol/kg of feed, 9 days of S): 2.33%
Percentage of THY transferred to droppings in relation to the amount ingested ([1]; THY2, 2 g of thymol/kg of feed, 16 days of S): 2.41%
Percentage of THY transferred to droppings in relation to the amount ingested ([1]; THY2, 2 g of thymol/kg of feed, 26 days of S): 3.47%
Percentage of THY transferred to droppings in relation to the amount ingested [1, 4]: 0.04%
THY concentration in droppings [1, 4]: 4.37 ng/g
Percentage of THY transferred to droppings in relation to the amount ingested ([1]; THY4, 4 g of thymol/kg of feed, 2 days of S): 0.25%
Percentage of THY transferred to droppings in relation to the amount ingested ([1]; THY4, 4 g of thymol/kg of feed, 9 days of S): 1.78%
Percentage of THY transferred to droppings in relation to the amount ingested ([1]; THY4, 4 g of thymol/kg of feed, 16 days of S): 1.91%
Percentage of THY transferred to droppings in relation to the amount ingested ([1]; THY4, 4 g of thymol/kg of feed, 26 days of S): 2.11%
Percentage of THY transferred to droppings in relation to the amount ingested [1, 5]: 0.12%
THY concentration in droppings [1, 5]: 30.58 ng/g
Percentage of THY transferred to droppings in relation to the amount ingested ([1]; THY6, 6.25 g of thymol/kg of feed, 2 days of S): 0.21%
Percentage of THY transferred to droppings in relation to the amount ingested ([1]; THY6, 6.25 g of thymol/kg of feed, 9 days of S): 1.33%
Percentage of THY transferred to droppings in relation to the amount ingested ([1]; THY6, 6.25 g of thymol/kg of feed, 16 days of S): 1.74%
Percentage of THY transferred to droppings in relation to the amount ingested ([1]; THY6, 6.25 g of thymol/kg of feed, 26 days of S): 1.57%
Percentage of THY transferred to droppings in relation to the amount ingested [1, 6]: 0.09%
THY concentration in droppings [1, 6]: 37.95 ng/g
THY transferred to the droppings, of the amount THY ingested ([1]; during the plateau, across THY2, THY4, THY6): 1.57–3.47%
concentration at 2 days ([1]; 2 g/kg of feed, THY2, 2 g of thymol/kg of feed, 2 days of S): 51.8 ng/g
concentration at 9 days ([1]; 2 g/kg of feed, THY2, 2 g of thymol/kg of feed, 9 days of S): 229 ng/g
concentration at 16 days ([1]; 2 g/kg of feed, THY2, 2 g of thymol/kg of feed, 16 days of S): 237 ng/g
concentration at 26 days ([1]; 2 g/kg of feed, THY2, 2 g of thymol/kg of feed, 26 days of S): 342 ng/g
concentration at 2 days ([1]; 4 g/kg of feed, THY4, 4 g of thymol/kg of feed, 2 days of S): 63.5 ng/g
concentration at 9 days ([1]; 4 g/kg of feed, THY4, 4 g of thymol/kg of feed, 9 days of S): 459 ng/g
concentration at 16 days ([1]; 4 g/kg of feed, THY4, 4 g of thymol/kg of feed, 16 days of S): 491 ng/g
concentration at 26 days ([1]; 4 g/kg of feed, THY4, 4 g of thymol/kg of feed, 26 days of S): 542 ng/g
concentration at 2 days ([1]; 6.25 g/kg of feed, THY6, 6.25 g of thymol/kg of feed, 2 days of S): 85 ng/g
concentration at 9 days ([1]; 6.25 g/kg of feed, THY6, 6.25 g of thymol/kg of feed, 9 days of S): 550 ng/g
concentration at 16 days ([1]; 6.25 g/kg of feed, THY6, 6.25 g of thymol/kg of feed, 16 days of S): 721 ng/g
concentration at 26 days ([1]; 6.25 g/kg of feed, THY6, 6.25 g of thymol/kg of feed, 26 days of S): 650 ng/g
effect on histopathological features of the liver ([2]; 2, 4, 6.25 g of THY/kg feed, 28 days S and 21 days pS): did not affect
HILiv.Rp3 (liver histopathological index, progressive changes) [2, 7]: 0,80
HILiv.Rp4 (liver histopathological index, inflammation) [2, 7]: 0,27
HILiv (total liver histopathological index) [2, 8]: 22,58
HILiv.Rp2 (liver histopathological index, regressive changes) [2, 8]: 16,80
concentration of THY needed to be added to a control yolk for antioxidant activity equivalent to a yolk from a thyme treated hen [3]: 278 ug of THY/g of yolk
